Test results reported in patent publication US20180185347A1, “TETRAHYDROCYCLOPENTA[B]INDOLE COMPOUNDS AND PHOSPHODIESTERASE INHIBITORS FOR THE TREATMENT OF THE SIGNS AND SYMPTOMS OF BHP” (Transition Therapeutics (Ireland 2) Limited, priority 2016, published 2018).
Like-named read-outs stand apart in the source and are kept apart here.

Tests used:
[1] = system: LnCAP cells; assay: LnCAP gene expression; type: cell-based; conditions: Homo sapiens
[2] = system: orchidectomized rats; assay: Testosterone induced prostate / seminal vesicle growth in delayed ORX rat model; type: in vivo
From the text: Orchidectomized (ORX) and sham-operated Wistar male rats were used (orchidectomized at 8 weeks of age and allowed to waste for 4 weeks). […] Rats were randomized and placed into treatment groups (n=6) based on body weight. Route of administration for all groups except testosterone enanthate (TE was given sub-cutaneously) was oral. At the end of 2 weeks of daily rats were euthanized, weighed & tissue harvested. Levator ani, prostates, and seminal vesicles were collected from each animal. Results are plotted as means±SE.

[3] = ORX + TE, 1 mg/kg/d (control group itself)

| SMILES | EC50 ([1]; read-out: LnCAP Gene Expression EC50 (nM) AR) [nM] | EC50 ([1]; read-out: LnCAP Gene Expression EC50 (nM) CLUSTERIN) [nM] | EC50 ([1]; read-out: LnCAP Gene Expression EC50 (nM) PSA) [nM] | prostate weights, Abs(Dif)-LSD vs ORX + TE control [2, 3] | seminal vesicle wet weights, Abs(Dif)-LSD vs ORX + TE control [2, 3] | prostate weight and seminal vesical weight ([2]; ORX rat, Testosterone 1 mg/k/d alone for 2 weeks) |
| --- | --- | --- | --- | --- | --- | --- |
| C[C@]1(O)CC[C@H]2[C@@H]3CCC4=CC(=O)CCC4=C3C=C[C@@]21C [R1881] | 0.035 | 0.37 | 0.034 | – | – | – |
| CCCCCCC(=O)O[C@H]1CC[C@H]2[C@@H]3CCC4=CC(=O)CC[C@]4(C)[C@H]3CC[C@]12C [TE, Testosterone Enanthate, reference compound] | – | – | – | −0.15 | −0.52 | increase in prostate weight and seminal vesical weight |
